Laboratory results from US7041677B2, “Use of monochloroflosequinan in the treatment of sexual dysfunction” (R.T. Alamo Ventures I, LLC, priority 2002, dated 2006).

Test system: male Cynomolgus monkeys (Macaca fascicularis)
Assay: Erection monitoring after single intracavernosal dose
Assay type: in vivo
Design: key to Onset Score / Duration Score: 0: no response; erection but transient—less than 1 minute; 2: erection lasting at least 1 minute but less than 5 minutes; 3: erection lasting at least 5 minutes but less than 7 minutes; 4: erection lasting longer than 7 minutes
Conditions: for Erection Score: Erection Score=2D+O; for Onset of Erection: minutes post administration; for Erection Index: Erection Score/n, n=number of animals (4 monkeys)
Protocol: In this example, various halogenated derivatives of flosequinan were evaluated for their ability to induce penile erections. A single intracavernosal dose (of a given halogenated derivative of flosequinan) was administered to male Cynomolgus monkeys (Macaca fascicularis). The Cynomolgus monkey was selected because it is an appropriate established non-rodent species to be used as an erectile dysfunction model. Before the application of the test substances the possible erectile effect of dimethylsulfoxide 25% (DMSO) at a dose volume of 0.15 ml was assessed. (Concentrations of test compounds of less than 10 mg/ml were administered in 25% DMSO. Concentrations of 10 mg/ml or greater were administered in 100% DMSO). An initial dose level of 0.625 mg/kg of the test substance and the derivatives were used. If an erectile effect of the initial dose level was observed 1.25 mg/kg and finally 2.5 mg/kg of each test substance was used. Between each dose level and change of test substance there was a wash out phase of three days [except on Days 1 to 4 (Monochloroflosequinan Racemate) and days 40 to 43 (Monofluoroflosequinan) of the study where there was a wash out phase of only two days between treatments]. Dose volume: A dose volume of 0.15 ml per animal was used. The test substances were prepared according to the following scheme. For each test substance 10 mg was diluted in 1 ml of DMSO. After the test substance was completely dissolved the solution was diluted stepwise 1:2 with double distilled water to the required dose level. The test substance was formulated on the day of the dosing and stored at room temperature. No stability test was required when the test substances were formulated on the day of dosing. Remaining test substances were stored at approximately -80° C. Sufficient purpose-bred naive Cynomolgus monkeys (Macaca fascicularis) were obtained from a recognized supplier in order to provide 4 healthy male animals. At the start of study the animals were in the weight range of 4 to 7 kg and approximately 4 to 6 years old. The animals were housed in a climate controlled room to provide a minimum of 10 air changes per hour. Routinely the temperature and relative humidity ranges were between 19-25° C. and 30-70% respectively. Artificial lighting was controlled automatically to give a cycle of 12 hours light and 12 hours dark. The animals were housed singly in stainless steel cages (dimensions: 600 mm×600 mm×800 mm; E. Becker & Co. GmbH, 44579 Castrop-Rauxel, Germany). Each animal was offered twice daily between 50 to 70 g of a commercial pellet diet for primates (Ssniff P10, Ssniff Spezialdiäten GmbH, Ferdinand-Gabriel-Weg 16, 59494 Soest, Germany). Every three months diet was analyzed for specific contaminants. Tap water was provided ad libtum via an automatic watering system or bottles, except during urine collection. The water was periodically analyzed for specific contaminants found to be present in the diet or water at levels that might interfere with achieving the objective of the study. Clinical Observations: In addition to the initial pharmacological effect (penile erection) monitoring, all animals were observed twice daily for signs of ill health or overt toxicity. An individual record was maintained of the clinical condition of each animal. Post-dosing observations were performed at the discretion of the Study Director. All animals were examined at the beginning and the end of the working hours. […] Body weights were recorded once before dosing. Food consumption was not recorded. For proof of erection capability the animals were checked once pre-dose with electrostimulation using a rectal probe under sedation with […]. […] The onset post drug administration and duration of erection were recorded. Table 5 (below) provides an “Erection Score” and “Erection Index” for the same selected halogenated flosequinan derivatives presented in Table 5. […]

[1] = 0.625 mg/ml intracavernosal, monkey 11539M
[2] = 0.625 mg/ml intracavernosal, monkey 11543M
[3] = 0.625 mg/ml intracavernosal, monkey 11584M
[4] = 0.625 mg/ml intracavernosal, monkey 11590M
[5] = 2.5 mg/ml intracavernosal, monkey 11539M
[6] = 2.5 mg/ml intracavernosal, monkey 11543M
[7] = 2.5 mg/ml intracavernosal, monkey 11584M
[8] = 2.5 mg/ml intracavernosal, monkey 11590M
[9] = 10 mg/ml intracavernosal, monkey 11539M
[10] = 10 mg/ml intracavernosal, monkey 11543M
[11] = 10 mg/ml intracavernosal, monkey 11584M
[12] = 10 mg/ml intracavernosal, monkey 11590M

## Cn1cc([S+]([O-])CCl)c(=O)c2ccc(F)cc21 (racemic) [monochloroflosequinan, 3-chloromethylsulfinyl-7-fluoro-1-methyl-4-quinolone]
[1]
  Duration Score: 0
  Onset Score: 0
  Erection Score: 0
[2]
  Duration Erection: <1 min-^
  Duration Score: 0
  Onset Score: 0
  Onset of Erection: 70^a* min
  Erection Score: 0
[3]
  Duration Score: 0
  Onset Score: 0
  Erection Score: 0
[4]
  Duration Score: 0
  Onset Score: 0
  Erection Score: 0
0.625 mg/ml intracavernosal
  Erection Index: 0
[5]
  Duration Score: 0
  Onset Score: 0
  Erection Score: 0
[6]
  Duration Score: 0
  Onset Score: 0
  Erection Score: 0
[7]
  Duration Score: 0
  Onset Score: 0
  Erection Score: 0
[8]
  Duration Score: 0
  Onset Score: 0
  Erection Score: 0
2.5 mg/ml intracavernosal
  Erection Index: 0
[9]
  Duration Score: 0
  Onset Score: 0
  Erection Score: 0
[10]
  Duration Score: 0
  Onset Score: 0
  Erection Score: 0
[11]
  Duration Score: 0
  Onset Score: 0
  Erection Score: 0
[12]
  Duration Score: 0
  Onset Score: 0
  Erection Score: 0
10 mg/ml intracavernosal
  Erection Index: 0

## Cn1cc([S@@+]([O-])CCl)c(=O)c2ccc(F)cc21 (single isomer, unassigned) [(−)-enantiomer of monochloroflosequinan]
[9]
  Duration Score: 0
  Onset Score: 0
  Erection Score: 0
[10]
  Duration Score: 0
  Onset Score: 0
  Erection Score: 0
[11]
  Duration Score: 0
  Onset Score: 0
  Erection Score: 0
[12]
  Duration Erection: 7 min
  Duration Score: 3 (erection lasting at least 5 minutes but less than 7 minutes)
  Onset Score: 4 (erection onset 1 minute or less (immediate))
  Onset of Erection: immediate <1 min
  Erection Score: 10
10 mg/ml intracavernosal
  Erection Index: 2.5

## Cn1cc([S+]([O-])C(Cl)Cl)c(=O)c2ccc(F)cc21 (stereo not drawn) [dichloroflosequinan, 3-dichloromethylsulfinyl-7-fluoro-1-methyl-4-quinolone]
[9]
  Duration Score: 0
  Onset Score: 0
  Erection Score: 0
[10]
  Duration Erection: 1 min
  Duration Score: 2 (erection lasting at least 1 minute but less than 5 minutes)
  Onset Score: 4 (erection onset 1 minute or less (immediate))
  Erection Score: 8
[11]
  Duration Erection: 1 min
  Duration Score: 2 (erection lasting at least 1 minute but less than 5 minutes)
  Onset Score: 4 (erection onset 1 minute or less (immediate))
  Onset of Erection: immediate <1 min
  Erection Score: 8
[12]
  Duration Erection: 7 min
  Duration Score: 4 (erection lasting longer than 7 minutes)
  Onset Score: 4 (erection onset 1 minute or less (immediate))
  Onset of Erection: immediate <1 min
  Erection Score: 12
10 mg/ml intracavernosal
  Erection Index: 7.0
Cynomolgus monkeys, intracavernosal, summary of Tables 4 & 5
  inducing penile erections: especially effective
